Measured values from ChEMBL document CHEMBL1201862, “PubChem BioAssay data set” (2004).
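Cells were grown in 96-well plates and exposed to each compound for 48 hours at five concentrations; endpoints were interpolated linearly between bracketing concentrations, or set to the highest concentration if not reached. GI50: concentration for 50% inhibition of growth.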 The source made the active and inactive calls. Cut-off read from the data, not from the text of the source: active = GI50 up to about 1.1 µM and inactive = higher.

Assays:
Assay in all cases: growth of human tumour cells (NCI), 48 h
[1] = tested on: U-251
[2] = tested on: TK-10
[3] = tested on: SW-620
[4] = tested on: SF-539
[5] = tested on: A549
[6] = tested on: SNB-19
[7] = tested on: SK-MEL-2
[8] = tested on: SNB-75
[9] = tested on: LOX IMVI
[10] = tested on: SR
[11] = tested on: SK-OV-3
[12] = tested on: HCT-116
[13] = tested on: ACHN
[14] = tested on: 786-0
[15] = tested on: M14
[16] = tested on: RXF 393
[17] = tested on: NCI-H23
[18] = tested on: A498
[19] = tested on: HT-29
[20] = tested on: KM12

`NS(=O)(=O)c1ccc(NC2(C(=O)O)CCCC2)cc1` was tested. Which GI50 [1] did it give?
The GI50 was > 100 µM (inactive).

And the GI50 [2]?
The GI50 was > 100 µM (inactive).

And the GI50 [3]?
The GI50 was > 100 µM (inactive).

What about the GI50 [4] of the same compound?
The GI50 was > 100 µM (inactive).

And the GI50 [5]?
The GI50 was > 100 µM (inactive).

What about the GI50 [6] of the same compound?
The GI50 was > 100 µM (inactive).

And the GI50 [7]?
The GI50 was > 100 µM (inactive).

What about the GI50 [8] of the same compound?
Its GI50 is > 100 µM (inactive).

And the GI50 [9]?
The GI50 was > 100 µM (inactive).

And the GI50 [10]?
The GI50 was > 100 µM (inactive).

And the GI50 [11]?
Its GI50 is > 100 µM (inactive).

And the GI50 [12]?
The GI50 was > 100 µM (inactive).

What about the GI50 [13] of the same compound?
The GI50 was > 100 µM (inactive).

And the GI50 [14]?
Its GI50 is > 100 µM (inactive).

And the GI50 [15]?
The GI50 was > 100 µM (inactive).

What about the GI50 [16] of the same compound?
Its GI50 is > 100 µM (inactive).

And the GI50 [17]?
The GI50 was > 100 µM (inactive).

And the GI50 [18]?
Its GI50 is > 100 µM (inactive).

What about the GI50 [19] of the same compound?
Its GI50 is > 100 µM (inactive).

And the GI50 [20]?
Its GI50 is > 100 µM (inactive).

What does the source list for `O=C1Nc2c(Cl)cccc2/C1=N/Nc1ccccc1[N+](=O)[O-]`?
GI50 [1]: 14.2 µM (inactive); GI50 [2]: 11.5 µM (inactive); GI50 [3]: 32.7 µM (inactive); GI50 [4]: 16.7 µM (inactive); GI50 [5]: 21.8 µM (inactive); GI50 [6]: 44.3 µM (inactive); GI50 [7]: 70.6 µM (inactive); GI50 [8]: 14 µM (inactive); GI50 [9]: 11.8 µM (inactive); GI50 [10]: 4.68 µM (inactive); GI50 [11]: 18.8 µM (inactive); GI50 [12]: 29.7 µM (inactive); GI50 [13]: 11.9 µM (inactive); GI50 [14]: 10.1 µM (inactive); GI50 [15]: 21.7 µM (inactive); GI50 [16]: 31.9 µM (inactive); GI50 [17]: 13.5 µM (inactive); GI50 [18]: 28.2 µM (inactive); GI50 [19]: 12.5 µM (inactive); GI50 [20]: 8.89 µM (inactive)

Which GI50 [1] does the source give for `CCC/C(=N\NC(=O)c1cc2ccccc2cc1O)C(CC)C(=O)CCC(=O)N(Cc1ccccc1)Cc1ccccc1` (stereo not given) here?
The GI50 was 57 µM (inactive).

What about the GI50 [2] of the same compound?
Its GI50 is > 100 µM (inactive).

And the GI50 [3]?
Its GI50 is 64 µM (inactive).

What about the GI50 [4] of the same compound?
Its GI50 is 48.1 µM (inactive).

And the GI50 [5]?
Its GI50 is 63 µM (inactive).

What about the GI50 [6] of the same compound?
Its GI50 is 27.7 µM (inactive).

What about the GI50 [7] of the same compound?
The GI50 was 28.6 µM (inactive).

What about the GI50 [8] of the same compound?
Its GI50 is 9.73 µM (inactive).

What about the GI50 [9] of the same compound?
The GI50 was 43 µM (inactive).

And the GI50 [10]?
The GI50 was 31 µM (inactive).

What about the GI50 [11] of the same compound?
The GI50 was > 100 µM (inactive).

What about the GI50 [12] of the same compound?
The GI50 was 41 µM (inactive).

And the GI50 [13]?
The GI50 was 33.5 µM (inactive).

What about the GI50 [14] of the same compound?
Its GI50 is 25.7 µM (inactive).

And the GI50 [15]?
Its GI50 is 32.7 µM (inactive).

What about the GI50 [16] of the same compound?
The GI50 was 37 µM (inactive).

And the GI50 [17]?
Its GI50 is 76.2 µM (inactive).

What about the GI50 [18] of the same compound?
The GI50 was 85.9 µM (inactive).

What about the GI50 [19] of the same compound?
The GI50 was 83.2 µM (inactive).

And the GI50 [20]?
The GI50 was 96.6 µM (inactive).

`O=C(CCC1OCCO1)Nc1cc(NCc2ccccc2)ccc1OCc1ccccc1` was tested. Which GI50 [1] did it give?
The GI50 was 37.1 µM (inactive).

And the GI50 [2]?
The GI50 was 26.6 µM (inactive).

And the GI50 [3]?
The GI50 was 42.1 µM (inactive).

What about the GI50 [4] of the same compound?
The GI50 was 30.4 µM (inactive).

What about the GI50 [5] of the same compound?
Its GI50 is 30.6 µM (inactive).

What about the GI50 [6] of the same compound?
The GI50 was 40.3 µM (inactive).

And the GI50 [7]?
Its GI50 is 21 µM (inactive).

What about the GI50 [8] of the same compound?
Its GI50 is 32.5 µM (inactive).

And the GI50 [9]?
The GI50 was 33.7 µM (inactive).

What about the GI50 [10] of the same compound?
The GI50 was 27.9 µM (inactive).

And the GI50 [11]?
Its GI50 is 68.5 µM (inactive).

And the GI50 [12]?
The GI50 was 48.9 µM (inactive).

And the GI50 [13]?
Its GI50 is 33.5 µM (inactive).

What about the GI50 [14] of the same compound?
Its GI50 is > 100 µM (inactive).

What about the GI50 [15] of the same compound?
Its GI50 is 59.6 µM (inactive).

And the GI50 [16]?
The GI50 was 28.8 µM (inactive).

And the GI50 [17]?
The GI50 was 31.7 µM (inactive).

What about the GI50 [18] of the same compound?
Its GI50 is 30.5 µM (inactive).

And the GI50 [19]?
The GI50 was 27.7 µM (inactive).

And the GI50 [20]?
Its GI50 is 30.1 µM (inactive).

`Nc1ccc(-c2ncc3cc(-c4cccc(-c5cc6cnc(-c7ccc(N)cc7)nc6c6ccccc56)c4)c4ccccc4c3n2)cc1` was tested. Which GI50 [1] did it give?
The GI50 was > 100 µM (inactive).

What about the GI50 [2] of the same compound?
Its GI50 is > 100 µM (inactive).

And the GI50 [3]?
The GI50 was > 100 µM (inactive).

And the GI50 [4]?
Its GI50 is > 100 µM (inactive).

What about the GI50 [5] of the same compound?
The GI50 was > 100 µM (inactive).

What about the GI50 [6] of the same compound?
Its GI50 is > 100 µM (inactive).

And the GI50 [7]?
Its GI50 is > 100 µM (inactive).

What about the GI50 [8] of the same compound?
The GI50 was > 100 µM (inactive).

What about the GI50 [9] of the same compound?
The GI50 was > 100 µM (inactive).

What about the GI50 [10] of the same compound?
The GI50 was > 100 µM (inactive).

And the GI50 [11]?
The GI50 was > 100 µM (inactive).

And the GI50 [12]?
The GI50 was > 100 µM (inactive).

What about the GI50 [13] of the same compound?
Its GI50 is > 100 µM (inactive).

And the GI50 [14]?
Its GI50 is > 100 µM (inactive).

And the GI50 [15]?
Its GI50 is 60.1 µM (inactive).

What about the GI50 [16] of the same compound?
Its GI50 is > 100 µM (inactive).

And the GI50 [17]?
Its GI50 is > 100 µM (inactive).

What about the GI50 [18] of the same compound?
Its GI50 is > 100 µM (inactive).

And the GI50 [19]?
The GI50 was > 100 µM (inactive).

And the GI50 [20]?
Its GI50 is > 100 µM (inactive).

For `CCN1CCC(O)(c2ccc([N+](=O)[O-])cc2)C(C(=O)c2ccc([N+](=O)[O-])cc2)C1` (stereo not given), which GI50 [1] is on record?
Its GI50 is 29.2 µM (inactive).

And the GI50 [2]?
Its GI50 is 17.8 µM (inactive).

What about the GI50 [3] of the same compound?
The GI50 was 25.1 µM (inactive).

What about the GI50 [4] of the same compound?
Its GI50 is 14.3 µM (inactive).

And the GI50 [5]?
Its GI50 is 69 µM (inactive).

And the GI50 [6]?
Its GI50 is 95.1 µM (inactive).

What about the GI50 [7] of the same compound?
Its GI50 is 43.2 µM (inactive).

And the GI50 [8]?
The GI50 was 34.5 µM (inactive).

What about the GI50 [9] of the same compound?
The GI50 was 21.6 µM (inactive).

And the GI50 [10]?
Its GI50 is 33 µM (inactive).

What about the GI50 [11] of the same compound?
Its GI50 is > 100 µM (inactive).

And the GI50 [12]?
The GI50 was 17.2 µM (inactive).

And the GI50 [13]?
The GI50 was 17.8 µM (inactive).

And the GI50 [14]?
Its GI50 is 15.5 µM (inactive).

What about the GI50 [15] of the same compound?
The GI50 was 18.1 µM (inactive).

What about the GI50 [16] of the same compound?
The GI50 was 14.4 µM (inactive).

What about the GI50 [17] of the same compound?
Its GI50 is 19.5 µM (inactive).

And the GI50 [18]?
The GI50 was 22 µM (inactive).

And the GI50 [19]?
The GI50 was 32.1 µM (inactive).

And the GI50 [20]?
The GI50 was 17 µM (inactive).

`COc1cc2cc(C(=O)N3CC(CCl)c4c3cc(NC(=O)OCc3ccc([N+](=O)[O-])cc3)c3ccccc43)[nH]c2c(OC)c1OC` (stereo not given) was tested. Which GI50 [1] did it give?
Its GI50 is 38.5 µM (inactive).

And the GI50 [2]?
The GI50 was 0.327 µM (active).

What about the GI50 [3] of the same compound?
The GI50 was 28.2 µM (inactive).

What about the GI50 [4] of the same compound?
Its GI50 is > 48.6 µM (inactive).

What about the GI50 [5] of the same compound?
The GI50 was 8.65 µM (inactive).

What about the GI50 [6] of the same compound?
Its GI50 is > 100 µM (inactive).

What about the GI50 [7] of the same compound?
Its GI50 is > 69.2 µM (inactive).

What about the GI50 [8] of the same compound?
The GI50 was 20.5 µM (inactive).

And the GI50 [9]?
Its GI50 is 38.7 µM (inactive).

And the GI50 [10]?
Its GI50 is 0.0432 µM (active).

And the GI50 [11]?
Its GI50 is < 0.01 µM (active).

What about the GI50 [12] of the same compound?
The GI50 was 14.7 µM (inactive).

And the GI50 [13]?
The GI50 was < 0.0116 µM (active).

What about the GI50 [14] of the same compound?
Its GI50 is 0.785 µM (active).

And the GI50 [15]?
Its GI50 is 29 µM (inactive).

And the GI50 [16]?
The GI50 was 14 µM (inactive).

What about the GI50 [17] of the same compound?
The GI50 was 0.158 µM (active).

And the GI50 [18]?
Its GI50 is < 0.01 µM (active).

And the GI50 [19]?
Its GI50 is > 54.2 µM (inactive).

What about the GI50 [20] of the same compound?
Its GI50 is > 42.5 µM (inactive).
